We go through 14 compounds from patent US20240218022A1, “ANTI-VISTA MACROCYCLIC PEPTIDES AND COMPOSITIONS” (BRISTOL-MYERS SQUIBB COMPANY, priority 2022, published 2024).

Positions of bridges follow the written chain, without caps; N, C: chain ends. Non-standard residues stand in square brackets, D forms with d. Residues, ends and D or L forms follow the SMILES beside them. Phe(3,4,5-F3) = N[C@@H](Cc1cc(F)c(F)c(F)c1)C(=O)O; Phe(3,4-(OMe)2) = COc1ccc(C[C@H](N)C(=O)O)cc1OC; Phe(4-CF3) = N[C@@H](Cc1ccc(C(F)(F)F)cc1)C(=O)O; Trp(1-Me) = Cn1cc(C[C@H](N)C(=O)O)c2ccccc21; Phe(3-Me) = Cc1cccc(C[C@H](N)C(=O)O)c1; 1Nal = N[C@@H](Cc1cccc2ccccc12)C(=O)O; 2Nal = N[C@@H](Cc1ccc2ccccc2c1)C(=O)O; Cit = NC(=O)NCCC[C@H](N)C(=O)O; Ahp(2) = CCCCC[C@H](N)C(=O)O; NMeNle = CCCC[C@H](NC)C(=O)O; NHexGly = CCCCCCNCC(=O)O; Nle = CCCC[C@H](N)C(=O)O; Orn = NCCC[C@H](N)C(=O)O

One assay addresses T1, mouse VISTA (mVISTA) (Mus musculus, UniProt Q9D659).
T1 construct: expressed in transfected cells; host or cells: Human embryonic kidney 293T cells
T1 sequence (Q9D659 33-308): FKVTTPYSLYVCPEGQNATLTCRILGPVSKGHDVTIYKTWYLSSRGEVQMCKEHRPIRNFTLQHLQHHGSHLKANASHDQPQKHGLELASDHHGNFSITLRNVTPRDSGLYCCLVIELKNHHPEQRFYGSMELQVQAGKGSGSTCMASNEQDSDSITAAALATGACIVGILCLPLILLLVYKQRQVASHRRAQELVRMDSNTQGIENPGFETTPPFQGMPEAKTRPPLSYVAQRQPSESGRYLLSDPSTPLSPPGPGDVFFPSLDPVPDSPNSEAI
Description: Cell-Based Binding High-Content Assay For mVISTA (HC CBA mVISTA). The following applies: the 19th table, scaffold drawing 22; read-out: HC CBA mVISTA IC50. In a few lines: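 Read-out: Alexa 647–streptavidin signal imaged on fixed, Hoechst-stained mVISTA-293T cells, with IC50 taken from a four-parameter logistic curve. Compounds competed with 2 nM biotinylated peptide for 30 min at room temperature, tested under both no-wash and wash (1 h compound, media exchange, 1 h) formats.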
For the compound `CCCCCCN1CC(=O)N[C@@H](Cc2ccc(O)cc2)C(=O)N[C@@H](CCCC)C(=O)N[C@@H](CC(=O)O)C(=O)N[C@@H](CCCNC(N)=O)C(=O)N(C)[C@@H](CCCC)C(=O)N[C@@H](CCCCC)C(=O)N2CCC[C@H]2C(=O)N[C@@H](C(C)C)C(=O)N[C@@H](CC(=O)O)C(=O)N[C@H](C(=O)N[C@@H](CC(=O)O)C(N)=O)CSCC(=O)N[C@@H](Cc2cccc(C)c2)C(=O)N[C@@H](Cc2ccc(O)cc2)C(=O)N[C@@H](CC(=O)O)C1=O` [compound 1447] ({CH2CO}-[Phe(3-Me)]YD[NHexGly]Y[Nle]D[Cit][NMeNle][Ahp(2)]PVDCD-NH2; thioether N-14), the IC50 was found to be 15.3 nM.

Consider `CCCCCCN1CC(=O)N[C@@H](Cc2ccc(O)cc2)C(=O)N[C@@H](CCCC)C(=O)N[C@@H](CC(=O)O)C(=O)N[C@@H](CCCNC(=N)N)C(=O)N(C)[C@@H](CCCC)C(=O)N[C@@H](CCCCC)C(=O)N2CCC[C@H]2C(=O)N[C@@H](C(C)C)C(=O)N[C@@H](CC(=O)O)C(=O)N[C@H](C(=O)N[C@@H](CC(=O)O)C(N)=O)CSCC(=O)N[C@@H](Cc2cccc(C)c2)C(=O)N[C@@H](Cc2ccc(O)cc2)C(=O)N[C@@H](CC(=O)O)C1=O` [compound 1448] ({CH2CO}-[Phe(3-Me)]YD[NHexGly]Y[Nle]DR[NMeNle][Ahp(2)]PVDCD-NH2; thioether N-14), for which the half-maximal inhibitory concentration (IC50) was 14.2 nM.

As for `CCCCCCN1CC(=O)N[C@@H](Cc2ccc(O)cc2)C(=O)N[C@@H](CCCC)C(=O)N[C@@H](CC(=O)O)C(=O)N[C@@H](CCCN)C(=O)N(C)[C@@H](CCCC)C(=O)N[C@@H](CCCCC)C(=O)N2CCC[C@H]2C(=O)N[C@@H](C(C)C)C(=O)N[C@@H](CC(=O)O)C(=O)N[C@H](C(=O)N[C@@H](CC(=O)O)C(N)=O)CSCC(=O)N[C@@H](Cc2cccc(C)c2)C(=O)N[C@@H](Cc2ccc(O)cc2)C(=O)N[C@@H](CC(=O)O)C1=O` [compound 1449] ({CH2CO}-[Phe(3-Me)]YD[NHexGly]Y[Nle]D[Orn][NMeNle][Ahp(2)]PVDCD-NH2; thioether N-14), the concentration for half-maximal inhibition (IC50) came out at 10.8 nM.

As to `CCCCCCN1CC(=O)N[C@@H](Cc2ccc(O)cc2)C(=O)N[C@@H](CCCC)C(=O)N[C@@H](CC(N)=O)C(=O)N[C@@H](CCCNC(=N)N)C(=O)N(C)[C@@H](CCCC)C(=O)N[C@@H](CCCCC)C(=O)N2CCC[C@H]2C(=O)N[C@@H](C(C)C)C(=O)N[C@@H](CC(=O)O)C(=O)N[C@H](C(=O)NCC(=O)O)CSCC(=O)N[C@@H](Cc2cccc(C)c2)C(=O)N[C@@H](Cc2ccc(O)cc2)C(=O)N[C@@H](CC(=O)O)C1=O` [compound 1450] ({CH2CO}-[Phe(3-Me)]YD[NHexGly]Y[Nle]NR[NMeNle][Ahp(2)]PVDCG-OH; thioether N-14), the concentration for half-maximal inhibition (IC50) came out at 7 nM.

Take `CCCCCCN1CC(=O)N[C@@H](Cc2ccc(O)cc2)C(=O)N[C@@H](CCCC)C(=O)N[C@@H](CC(=O)O)C(=O)N[C@@H](CCCNC(=N)N)C(=O)N(C)[C@@H](CCCC)C(=O)N[C@@H](CCCCC)C(=O)N2CCC[C@H]2C(=O)N[C@@H](C(C)C)C(=O)N[C@@H](CC(=O)O)C(=O)N[C@H](C(=O)N[C@@H](CO)C(N)=O)CSCC(=O)N[C@@H](Cc2cccc(C)c2)C(=O)N[C@@H](Cc2ccc(O)cc2)C(=O)N[C@@H](CC(=O)O)C1=O` [compound 1451] ({CH2CO}-[Phe(3-Me)]YD[NHexGly]Y[Nle]DR[NMeNle][Ahp(2)]PVDCS-NH2; thioether N-14): the IC50 came out at 8.6 nM.

The same assay, now with this note: the 20th table, scaffold drawing 23; read-out: HC CBA mVISTA IC50.
As to `CCCCCCN1CC(=O)N[C@@H](Cc2ccc(O)cc2)C(=O)N[C@@H](CCCC)C(=O)N[C@@H](CC(N)=O)C(=O)N[C@@H](CCCNC(=N)N)C(=O)N[C@@H](CC(C)C)C(=O)N[C@@H](CCCCC)C(=O)N2CCC[C@H]2C(=O)N[C@@H](C(C)C)C(=O)N[C@@H](CO)C(=O)N[C@H](C(=O)NCC(=O)O)CSCC(=O)N[C@@H](Cc2cccc3ccccc23)C(=O)N[C@@H](Cc2ccc(O)cc2)C(=O)N[C@@H](CC(=O)O)C1=O` [compound 1452] ({CH2CO}-[1Nal]YD[NHexGly]Y[Nle]NRL[Ahp(2)]PVSCG-OH; thioether N-14), the half-maximal inhibitory concentration (IC50) stood at 19.9 nM.

In the case of `CCCCCCN1CC(=O)N[C@@H](Cc2ccc(O)cc2)C(=O)N[C@@H](CCCC)C(=O)N[C@@H](CC(N)=O)C(=O)N[C@@H](CCCNC(=N)N)C(=O)N[C@@H](CC(C)C)C(=O)N[C@@H](CCCCC)C(=O)N2CCC[C@H]2C(=O)N[C@@H](C(C)C)C(=O)N[C@@H](CC(=O)O)C(=O)N[C@H](C(=O)NCC(=O)O)CSCC(=O)N[C@@H](Cc2ccc3ccccc3c2)C(=O)N[C@@H](Cc2cn(C)c3ccccc23)C(=O)N[C@@H](CC(=O)O)C1=O` [compound 1454] ({CH2CO}-[2Nal][Trp(1-Me)]D[NHexGly]Y[Nle]NRL[Ahp(2)]PVDCG-OH; thioether N-14), the IC50 was found to be 3.6 nM.

Consider `CCCCCCN1CC(=O)N[C@@H](Cc2ccc(O)cc2)C(=O)N[C@@H](CCCC)C(=O)N[C@@H](CC(N)=O)C(=O)N[C@@H](CCCNC(=N)N)C(=O)N[C@@H](CC(C)C)C(=O)N[C@@H](CCCCC)C(=O)N2CCC[C@H]2C(=O)N[C@@H](C(C)C)C(=O)N[C@@H](CC(=O)O)C(=O)N[C@H](C(=O)NCC(=O)O)CSCC(=O)N[C@@H](Cc2ccccc2)C(=O)N[C@@H](Cc2cn(C)c3ccccc23)C(=O)N[C@@H](CC(=O)O)C1=O` [compound 1455] ({CH2CO}-F[Trp(1-Me)]D[NHexGly]Y[Nle]NRL[Ahp(2)]PVDCG-OH; thioether N-14), for which the IC50 was determined as 3.5 nM.

For `CCCCCCN1CC(=O)N[C@@H](Cc2ccc(O)cc2)C(=O)N[C@@H](CCCC)C(=O)N[C@@H](CC(N)=O)C(=O)N[C@@H](CCCNC(=N)N)C(=O)N[C@@H](CC(C)C)C(=O)N[C@@H](CCCCC)C(=O)N2CCC[C@H]2C(=O)N[C@@H](C(C)C)C(=O)N[C@@H](CC(=O)O)C(=O)N[C@H](C(=O)NCC(=O)O)CSCC(=O)N[C@@H](Cc2cc(F)c(F)c(F)c2)C(=O)N[C@@H](Cc2c[nH]c3ccccc23)C(=O)N[C@@H](CC(=O)O)C1=O` [compound 1456] ({CH2CO}-[Phe(3,4,5-F3)]WD[NHexGly]Y[Nle]NRL[Ahp(2)]PVDCG-OH; thioether N-14), the 50% inhibitory concentration (IC50) was 17 nM.

In the case of `CCCCCCN1CC(=O)N[C@@H](Cc2ccc(O)cc2)C(=O)N[C@@H](CCCC)C(=O)N[C@@H](CC(N)=O)C(=O)N[C@@H](CCCNC(=N)N)C(=O)N[C@@H](CC(C)C)C(=O)N[C@@H](CCCCC)C(=O)N2CCC[C@H]2C(=O)N[C@@H](C(C)C)C(=O)N[C@@H](CC(=O)O)C(=O)N[C@H](C(=O)NCC(=O)O)CSCC(=O)N[C@@H](Cc2cc(F)c(F)c(F)c2)C(=O)N[C@@H](Cc2ccc(O)cc2)C(=O)N[C@@H](CC(=O)O)C1=O` [compound 1457] ({CH2CO}-[Phe(3,4,5-F3)]YD[NHexGly]Y[Nle]NRL[Ahp(2)]PVDCG-OH; thioether N-14), the IC50 was 11.6 nM.

Regarding `CCCCCCN1CC(=O)N[C@@H](Cc2ccc(O)cc2)C(=O)N[C@@H](CCCC)C(=O)NCC(=O)N[C@@H](CCCNC(=N)N)C(=O)N[C@@H](CC(C)C)C(=O)N[C@@H](CCCCC)C(=O)N2CCC[C@H]2C(=O)N[C@@H](C(C)C)C(=O)N[C@@H](CC(=O)O)C(=O)N[C@H](C(=O)NCC(=O)O)CSCC(=O)N[C@@H](Cc2ccc(OC)c(OC)c2)C(=O)N[C@@H](Cc2ccc(O)cc2)C(=O)N[C@@H](CC(=O)O)C1=O` [compound 1458] ({CH2CO}-[Phe(3,4-(OMe)2)]YD[NHexGly]Y[Nle]GRL[Ahp(2)]PVDCG-OH; thioether N-14), the concentration for half-maximal inhibition (IC50) was 33.8 nM.

In the case of `CCCCCCN1CC(=O)N[C@@H](Cc2ccc(O)cc2)C(=O)N[C@@H](CCCC)C(=O)N[C@@H](CC(N)=O)C(=O)N[C@@H](CCCNC(=N)N)C(=O)N[C@@H](CC(C)C)C(=O)N[C@@H](CCCCC)C(=O)N2CCC[C@H]2C(=O)N[C@@H](C(C)C)C(=O)N[C@@H](CC(=O)O)C(=O)N[C@H](C(=O)NCC(=O)O)CSCC(=O)N[C@@H](Cc2ccc(C(F)(F)F)cc2)C(=O)N[C@@H](Cc2c[nH]c3ccccc23)C(=O)N[C@@H](CC(=O)O)C1=O` [compound 1459] ({CH2CO}-[Phe(4-CF3)]WD[NHexGly]Y[Nle]NRL[Ahp(2)]PVDCG-OH; thioether N-14), the IC50 is 23.4 nM.

`CCCCCCN1CC(=O)N[C@@H](Cc2ccc(O)cc2)C(=O)N[C@@H](CC(C)C)C(=O)N[C@@H](CC(N)=O)C(=O)N[C@@H](CCCNC(=N)N)C(=O)N[C@@H](CC(C)C)C(=O)N[C@@H](CCCCC)C(=O)N2CCC[C@H]2C(=O)N[C@@H](C(C)C)C(=O)N[C@@H](C(C)C)C(=O)N[C@H](C(=O)NCC(=O)O)CSCC(=O)N[C@@H](Cc2ccc(C(F)(F)F)cc2)C(=O)N[C@@H](Cc2c[nH]c3ccccc23)C(=O)N[C@@H](CC(=O)O)C1=O` [compound 1460] ({CH2CO}-[Phe(4-CF3)]WD[NHexGly]YLNRL[Ahp(2)]PVVCG-OH; thioether N-14): the IC50 amounted to 8.7 nM.

As to `CCCCCCN1CC(=O)N[C@@H](Cc2ccc(O)cc2)C(=O)N[C@@H](CCCC)C(=O)N[C@@H](CC(N)=O)C(=O)N[C@@H](CCCNC(=N)N)C(=O)N[C@@H](CC(C)C)C(=O)N[C@@H](CCCCC)C(=O)N2CCC[C@H]2C(=O)N[C@@H](C(C)C)C(=O)N[C@@H](CC(=O)O)C(=O)N[C@H](C(=O)NCC(=O)O)CSCC(=O)N[C@@H](Cc2ccc(C(F)(F)F)cc2)C(=O)N[C@@H](Cc2ccc(O)cc2)C(=O)N[C@@H](CC(=O)O)C1=O` [compound 1461] ({CH2CO}-[Phe(4-CF3)]YD[NHexGly]Y[Nle]NRL[Ahp(2)]PVDCG-OH; thioether N-14), the concentration for half-maximal inhibition (IC50) stood at 5 nM.
